Data from US5585374A, “Amide derivatives” (John Wyeth Brother, Limited, priority 1992, dated 1996).

Tests used:
α1 sites = experiment: affinity for α1 sites (procedure of Marrow et al.); assay type: binding
5-HT1A receptor [1] = target: T1, 5-HT1A receptor (Rattus norvegicus, UniProt P19327); experiment: 5-HT1A receptor binding activity in rat hippocampal membrane homogenate
T1 construct: rat hippocampal membrane homogenate; from tissue; host or cells: rat hippocampus (membrane homogenate)
T1 sequence (P19327 1-422): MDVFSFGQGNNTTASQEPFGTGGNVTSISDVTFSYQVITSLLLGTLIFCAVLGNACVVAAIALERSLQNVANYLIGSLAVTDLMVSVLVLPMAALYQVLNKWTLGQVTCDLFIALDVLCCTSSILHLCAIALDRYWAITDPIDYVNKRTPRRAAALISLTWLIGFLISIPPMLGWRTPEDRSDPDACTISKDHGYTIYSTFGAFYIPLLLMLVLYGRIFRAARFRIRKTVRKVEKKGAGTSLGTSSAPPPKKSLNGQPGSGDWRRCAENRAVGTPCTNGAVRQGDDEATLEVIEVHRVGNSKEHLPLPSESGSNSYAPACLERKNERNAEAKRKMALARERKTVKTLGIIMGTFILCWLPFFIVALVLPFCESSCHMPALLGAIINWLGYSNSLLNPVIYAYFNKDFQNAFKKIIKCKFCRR
Experimental: The compounds of the invention are tested for 5-HT1A receptor binding activity in rat hippocampal membrane homogenate by the method of B S Alexander and M D Wood, J Pharm Pharmacol, 1988, 40, 888-891.

5-HT1A receptor [2] = target: T2, 5-HT1A receptor (Cavia porcellus, UniProt A0A286Y074); experiment: 5-HT1A receptor antagonism: antagonism of 5-carboxamidotryptamine in guinea-pig ileum in vitro; details: read-out: pA2 (converted)
T2 construct: in the guinea-pig ileum in vitro; from tissue; host or cells: guinea-pig ileum
T2 sequence (A0A286Y074 1-421): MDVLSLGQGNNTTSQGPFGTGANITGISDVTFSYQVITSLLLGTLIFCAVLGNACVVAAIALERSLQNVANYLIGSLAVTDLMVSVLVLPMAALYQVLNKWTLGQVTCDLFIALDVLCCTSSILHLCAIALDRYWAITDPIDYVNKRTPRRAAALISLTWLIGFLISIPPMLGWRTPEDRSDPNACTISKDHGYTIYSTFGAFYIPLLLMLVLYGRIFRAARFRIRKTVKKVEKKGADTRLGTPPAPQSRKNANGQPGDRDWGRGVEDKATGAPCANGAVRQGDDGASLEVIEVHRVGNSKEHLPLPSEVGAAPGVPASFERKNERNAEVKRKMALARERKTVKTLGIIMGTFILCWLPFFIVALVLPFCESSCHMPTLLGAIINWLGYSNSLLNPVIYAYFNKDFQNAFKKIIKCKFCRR
Experimental: The compounds are tested for 5-HT1A receptor antagonism activity in a test involving the antagonism of 5-carboxamidotryptamine in the guinea-pig ileum in vitro (based upon the procedure of Fozard et al, Br J Pharmac, 1985, 86, 601 P).

| SMILES | IC50 (α1 sites) | IC50 (5-HT1A receptor [1]) | Kb (5-HT1A receptor [2]) |
| --- | --- | --- | --- |
| COc1ccccc1C1CCN(CCC(C(=O)N2CCCCCC2)c2ccccc2)CC1 (single isomer, unassigned; (+)) [(+)-enantiomer] | 250 nM | 0.2 nM | 1 nM |
| COc1ccccc1C1CCN(CCC(C(=O)N2CCCCCC2)c2ccccc2)CC1 (stereo not drawn) [2,3,4,5,6,7-hexahydro-1-(4-(1-(1,2,3,4,5,6-hexahydro-4-(2-methoxyphenyl)pyridyl))-2-phenylbutyryl)-1H-azepine] | 1080 nM | 1.2 nM | 0.794 nM |
